Assay results as given in article PMC9234961 (Journal of Medicinal Chemistry, 2022).
Several values for one entry are separate records, joined by “and”; a condition that tells them apart may be missing. Equal entries are not always repeated. Where two headings read alike, the source gives them in different places.

Key:
kinases (468) [1] = molecular target: kinases (468) (Homo sapiens, UniProt O00141); conditions: kinase SGK (Entrez SGK1); compound concentration 1000 nM
kinases (468) [2] = molecular target: kinases (468) (Homo sapiens, UniProt O43283); conditions: LZK (MAP3K13); 1000 nM
kinases (468) [3] = molecular target: kinases (468) (Homo sapiens, UniProt O94921); conditions: PFTK1 (CDK14); 1000 nM
kinases (468) [4] = molecular target: kinases (468) (Homo sapiens, UniProt P00519, E255K); conditions: ABL1(E255K)-phosphorylated; 1000 nM
kinases (468) [5] = molecular target: kinases (468) (Homo sapiens, UniProt P07332); conditions: FES; 1000 nM
kinases (468) [6] = molecular target: kinases (468) (Homo sapiens, UniProt P17948); conditions: FLT1; 1000 nM
kinases (468) [7] = molecular target: kinases (468) (Homo sapiens, UniProt P29376); conditions: LTK; 1000 nM
kinases (468) [8] = molecular target: kinases (468) (Homo sapiens, UniProt P29597); conditions: compound concentration 1000 nM
kinases (468) [9] = molecular target: kinases (468) (Homo sapiens, UniProt P35626); conditions: GRK3 (ADRBK2); 1000 nM
kinases (468) [10] = molecular target: kinases (468) (Homo sapiens, UniProt P42336, I800L); conditions: PIK3CA(I800L); 1000 nM
kinases (468) [11] = molecular target: kinases (468) (Homo sapiens, UniProt P43405); conditions: kinase SYK (Entrez SYK); compound concentration 1000 nM
kinases (468) [12] = molecular target: kinases (468) (Homo sapiens, UniProt P49336); conditions: CDK8; 1000 nM
kinases (468) [13] = molecular target: kinases (468) (Homo sapiens, UniProt P49759); conditions: CLK1; 1000 nM
kinases (468) [14] = molecular target: kinases (468) (Homo sapiens, UniProt P50750); conditions: CDK9; 1000 nM
kinases (468) [15] = molecular target: kinases (468) (Homo sapiens, UniProt P51956); conditions: NEK3; 1000 nM
kinases (468) [16] = molecular target: kinases (468) (Homo sapiens, UniProt P52564); conditions: MEK6 (MAP2K6); 1000 nM
kinases (468) [17] = molecular target: kinases (468) (Homo sapiens, UniProt P57058); conditions: HUNK; 1000 nM
kinases (468) [18] = molecular target: kinases (468) (Homo sapiens, UniProt Q12852); conditions: DLK (MAP3K12); 1000 nM
kinases (468) [19] = molecular target: kinases (468) (Homo sapiens, UniProt Q13546); conditions: kinase RIPK1 (Entrez RIPK1); compound concentration 1000 nM
kinases (468) [20] = molecular target: kinases (468) (Homo sapiens, UniProt Q15418); conditions: compound concentration 1000 nM
kinases (468) [21] = molecular target: kinases (468) (Homo sapiens, UniProt Q6ZWH5); conditions: NEK10; 1000 nM
kinases (468) [22] = molecular target: kinases (468) (Homo sapiens, UniProt Q8NE63); conditions: HIPK4; 1000 nM
kinases (468) [23] = molecular target: kinases (468) (Homo sapiens, UniProt Q8NEV4); conditions: MYO3A; 1000 nM
kinases (468) [24] = molecular target: kinases (468) (Homo sapiens, UniProt Q8NI60); conditions: ADCK3 (CABC1); 1000 nM
kinases (468) [25] = molecular target: kinases (468) (Homo sapiens, UniProt Q9BX84); conditions: kinase TRPM6 (Entrez TRPM6); compound concentration 1000 nM
kinases (468) [26] = molecular target: kinases (468) (Homo sapiens, UniProt Q9H093); conditions: kinase SNARK (Entrez NUAK2); compound concentration 1000 nM
kinases (468) [27] = molecular target: kinases (468) (Homo sapiens, UniProt Q9H2X6); conditions: HIPK2; 1000 nM
kinases (468) [28] = molecular target: kinases (468) (Homo sapiens, UniProt Q9H422); conditions: HIPK3; 1000 nM
kinases (468) [29] = molecular target: kinases (468) (Homo sapiens, UniProt Q9HAZ1); conditions: CLK4; 1000 nM
kinases (468) [30] = molecular target: kinases (468) (Homo sapiens, UniProt Q9HBH9); conditions: MKNK2; 1000 nM
kinases (468) [31] = molecular target: kinases (468) (Homo sapiens, UniProt Q9HBY8); conditions: kinase SGK2 (Entrez SGK2); compound concentration 1000 nM
kinases (468) [32] = molecular target: kinases (468) (Homo sapiens, UniProt Q9NSY1); conditions: BIKE (BMP2K); 1000 nM
kinases (468) [33] = molecular target: kinases (468) (Homo sapiens, UniProt Q9UBF8); conditions: PIK4CB (PI4KB); 1000 nM
kinases (468) [34] = tested on: kinases (468)

kinases (468) (Homo sapiens, UniProt Q15418), sequence (Q15418 whole entry): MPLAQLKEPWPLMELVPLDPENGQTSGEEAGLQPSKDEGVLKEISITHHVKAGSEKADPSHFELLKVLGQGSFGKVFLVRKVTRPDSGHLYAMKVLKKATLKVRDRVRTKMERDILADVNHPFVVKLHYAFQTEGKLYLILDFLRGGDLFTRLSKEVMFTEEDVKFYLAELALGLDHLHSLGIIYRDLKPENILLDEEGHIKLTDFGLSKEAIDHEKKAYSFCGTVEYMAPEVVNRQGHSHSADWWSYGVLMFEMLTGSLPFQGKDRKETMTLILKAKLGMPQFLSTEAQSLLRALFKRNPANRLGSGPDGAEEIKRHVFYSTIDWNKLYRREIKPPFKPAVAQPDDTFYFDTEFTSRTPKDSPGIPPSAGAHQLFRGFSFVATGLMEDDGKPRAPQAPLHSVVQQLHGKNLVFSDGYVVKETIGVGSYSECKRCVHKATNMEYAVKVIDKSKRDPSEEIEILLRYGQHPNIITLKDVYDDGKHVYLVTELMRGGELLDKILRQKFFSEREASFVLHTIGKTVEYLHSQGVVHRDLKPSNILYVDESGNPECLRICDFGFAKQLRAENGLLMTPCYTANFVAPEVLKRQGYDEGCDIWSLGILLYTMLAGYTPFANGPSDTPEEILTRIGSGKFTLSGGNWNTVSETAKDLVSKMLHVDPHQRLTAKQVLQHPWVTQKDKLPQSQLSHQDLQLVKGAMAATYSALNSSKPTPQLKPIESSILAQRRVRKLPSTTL
kinases (468) (Homo sapiens, UniProt P29597), sequence (P29597 whole entry): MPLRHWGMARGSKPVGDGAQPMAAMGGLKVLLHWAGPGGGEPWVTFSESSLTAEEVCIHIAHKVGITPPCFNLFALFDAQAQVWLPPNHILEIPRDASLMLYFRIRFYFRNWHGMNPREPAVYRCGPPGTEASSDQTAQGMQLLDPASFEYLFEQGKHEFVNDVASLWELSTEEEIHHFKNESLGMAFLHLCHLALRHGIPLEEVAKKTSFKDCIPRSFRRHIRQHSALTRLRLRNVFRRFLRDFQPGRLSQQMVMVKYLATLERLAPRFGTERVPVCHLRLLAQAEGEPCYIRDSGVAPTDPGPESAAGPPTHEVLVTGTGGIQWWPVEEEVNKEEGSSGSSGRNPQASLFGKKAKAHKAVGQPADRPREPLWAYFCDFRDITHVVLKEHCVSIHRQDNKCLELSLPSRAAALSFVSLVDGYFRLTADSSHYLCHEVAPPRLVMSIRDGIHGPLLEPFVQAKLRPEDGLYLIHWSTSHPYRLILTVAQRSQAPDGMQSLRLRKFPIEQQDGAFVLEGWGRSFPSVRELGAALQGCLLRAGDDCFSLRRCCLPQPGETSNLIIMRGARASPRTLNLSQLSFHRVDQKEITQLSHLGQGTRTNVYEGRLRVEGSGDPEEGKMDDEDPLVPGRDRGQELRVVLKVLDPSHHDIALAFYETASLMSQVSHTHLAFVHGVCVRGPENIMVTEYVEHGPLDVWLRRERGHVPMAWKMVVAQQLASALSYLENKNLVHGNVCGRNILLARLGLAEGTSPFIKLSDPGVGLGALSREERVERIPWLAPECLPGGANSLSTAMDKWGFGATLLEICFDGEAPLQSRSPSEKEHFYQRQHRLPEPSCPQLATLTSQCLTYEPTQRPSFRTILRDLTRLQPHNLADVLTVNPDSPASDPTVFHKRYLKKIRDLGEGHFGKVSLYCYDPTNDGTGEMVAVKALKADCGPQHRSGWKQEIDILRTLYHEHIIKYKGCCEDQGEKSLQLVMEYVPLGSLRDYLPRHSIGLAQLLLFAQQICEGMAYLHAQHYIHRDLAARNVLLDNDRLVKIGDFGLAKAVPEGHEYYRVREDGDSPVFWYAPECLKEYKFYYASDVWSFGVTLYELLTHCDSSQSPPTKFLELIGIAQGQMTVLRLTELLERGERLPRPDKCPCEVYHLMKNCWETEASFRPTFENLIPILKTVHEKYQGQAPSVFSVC
kinases (468) (Homo sapiens, UniProt O94921), sequence (O94921 whole entry): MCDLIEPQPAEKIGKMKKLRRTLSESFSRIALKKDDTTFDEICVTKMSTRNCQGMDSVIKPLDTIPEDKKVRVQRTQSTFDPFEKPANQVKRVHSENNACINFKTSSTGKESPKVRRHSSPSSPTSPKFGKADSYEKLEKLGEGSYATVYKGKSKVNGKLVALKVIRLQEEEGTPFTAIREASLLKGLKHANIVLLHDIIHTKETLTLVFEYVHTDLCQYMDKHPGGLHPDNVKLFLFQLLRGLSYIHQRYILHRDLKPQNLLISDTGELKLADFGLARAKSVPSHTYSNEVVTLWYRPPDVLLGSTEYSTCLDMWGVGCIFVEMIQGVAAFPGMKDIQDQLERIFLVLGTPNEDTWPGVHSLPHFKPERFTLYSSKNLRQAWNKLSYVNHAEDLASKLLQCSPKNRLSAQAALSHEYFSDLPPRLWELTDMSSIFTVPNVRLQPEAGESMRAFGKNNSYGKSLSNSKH
kinases (468) (Homo sapiens, UniProt Q12852), sequence (Q12852 whole entry): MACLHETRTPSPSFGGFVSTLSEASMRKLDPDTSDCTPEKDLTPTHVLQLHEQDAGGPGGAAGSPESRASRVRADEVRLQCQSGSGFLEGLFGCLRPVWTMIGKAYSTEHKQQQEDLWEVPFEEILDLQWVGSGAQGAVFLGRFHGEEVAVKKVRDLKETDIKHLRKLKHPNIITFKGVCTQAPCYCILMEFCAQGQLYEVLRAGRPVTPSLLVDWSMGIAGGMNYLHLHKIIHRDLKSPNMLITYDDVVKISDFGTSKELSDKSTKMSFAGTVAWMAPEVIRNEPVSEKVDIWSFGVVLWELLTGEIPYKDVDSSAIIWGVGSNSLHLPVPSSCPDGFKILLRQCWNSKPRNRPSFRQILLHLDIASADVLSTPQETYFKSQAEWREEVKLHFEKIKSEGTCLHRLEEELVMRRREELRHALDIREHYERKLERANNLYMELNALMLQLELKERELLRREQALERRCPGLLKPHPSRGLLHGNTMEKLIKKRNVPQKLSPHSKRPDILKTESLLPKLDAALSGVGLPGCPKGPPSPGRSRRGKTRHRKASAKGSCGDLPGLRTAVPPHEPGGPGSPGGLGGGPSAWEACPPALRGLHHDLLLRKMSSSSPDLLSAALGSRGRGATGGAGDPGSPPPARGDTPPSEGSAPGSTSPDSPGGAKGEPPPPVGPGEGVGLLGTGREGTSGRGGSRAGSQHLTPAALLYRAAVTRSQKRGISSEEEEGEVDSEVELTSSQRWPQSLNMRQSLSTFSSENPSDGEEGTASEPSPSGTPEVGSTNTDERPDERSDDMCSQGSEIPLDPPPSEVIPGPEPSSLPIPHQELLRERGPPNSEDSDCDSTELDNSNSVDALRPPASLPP
kinases (468) (Homo sapiens, UniProt P49759), sequence (P49759 whole entry): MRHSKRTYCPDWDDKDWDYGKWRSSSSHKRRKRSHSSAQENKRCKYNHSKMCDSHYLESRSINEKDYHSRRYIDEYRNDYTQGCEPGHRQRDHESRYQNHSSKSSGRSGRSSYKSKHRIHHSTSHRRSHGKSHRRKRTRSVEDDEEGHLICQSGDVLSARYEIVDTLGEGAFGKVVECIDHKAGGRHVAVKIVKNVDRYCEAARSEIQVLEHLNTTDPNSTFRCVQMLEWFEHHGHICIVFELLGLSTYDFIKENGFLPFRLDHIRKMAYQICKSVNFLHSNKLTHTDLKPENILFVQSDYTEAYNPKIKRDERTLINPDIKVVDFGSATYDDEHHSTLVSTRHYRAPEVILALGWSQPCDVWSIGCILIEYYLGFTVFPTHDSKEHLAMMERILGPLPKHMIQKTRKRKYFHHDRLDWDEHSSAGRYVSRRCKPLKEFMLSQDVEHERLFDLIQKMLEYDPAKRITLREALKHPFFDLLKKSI
kinases (468) (Homo sapiens, UniProt P52564), sequence (P52564 whole entry): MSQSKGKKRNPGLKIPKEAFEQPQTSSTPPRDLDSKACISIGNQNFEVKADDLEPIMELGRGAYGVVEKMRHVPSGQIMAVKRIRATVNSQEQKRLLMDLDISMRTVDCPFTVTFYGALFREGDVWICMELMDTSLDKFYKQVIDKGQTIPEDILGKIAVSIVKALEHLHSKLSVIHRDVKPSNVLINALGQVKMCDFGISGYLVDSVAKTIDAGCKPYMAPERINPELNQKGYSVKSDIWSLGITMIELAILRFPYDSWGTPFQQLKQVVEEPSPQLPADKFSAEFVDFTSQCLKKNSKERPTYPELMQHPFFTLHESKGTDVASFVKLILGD
kinases (468) (Homo sapiens, UniProt P57058), sequence (P57058 whole entry): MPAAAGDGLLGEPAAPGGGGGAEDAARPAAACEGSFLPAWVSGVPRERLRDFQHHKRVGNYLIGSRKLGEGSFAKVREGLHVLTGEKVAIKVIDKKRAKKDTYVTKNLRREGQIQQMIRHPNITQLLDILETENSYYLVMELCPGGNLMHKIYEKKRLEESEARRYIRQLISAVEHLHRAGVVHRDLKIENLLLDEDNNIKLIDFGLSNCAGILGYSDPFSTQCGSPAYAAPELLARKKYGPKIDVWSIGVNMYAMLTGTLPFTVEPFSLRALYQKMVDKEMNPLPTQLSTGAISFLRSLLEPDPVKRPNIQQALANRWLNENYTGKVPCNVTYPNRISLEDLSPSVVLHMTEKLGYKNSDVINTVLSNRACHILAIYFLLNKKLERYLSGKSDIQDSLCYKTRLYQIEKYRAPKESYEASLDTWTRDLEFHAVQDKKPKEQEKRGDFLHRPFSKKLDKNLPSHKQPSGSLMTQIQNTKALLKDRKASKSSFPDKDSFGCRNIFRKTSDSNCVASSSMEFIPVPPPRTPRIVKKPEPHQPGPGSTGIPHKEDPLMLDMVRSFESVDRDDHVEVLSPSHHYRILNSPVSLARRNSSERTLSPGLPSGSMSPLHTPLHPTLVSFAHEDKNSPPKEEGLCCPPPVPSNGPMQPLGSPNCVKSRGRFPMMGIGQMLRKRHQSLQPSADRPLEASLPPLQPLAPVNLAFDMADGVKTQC

## C[C@H]1C[C@@H](O)CN(c2ncc(Cl)c(Nc3ccc4c(c3)c3c(c(=O)n4C)OCC(F)(F)[C@H](C4CC4)N3)n2)C1 [CCT373566_9A]
Kinases (468) [1]
  Percent Control: 98%
Kinases (468) [2]
  Percent Control: 81%
Kinases (468) [3]
  Percent Control: 95%
Kinases (468) [4]
  Percent Control: 99%
Kinases (468) [5]
  Percent Control: 100%
Kinases (468) [6]
  Percent Control: 100%
Kinases (468) [7]
  Percent Control: 100%
Kinases (468) [8]; kinase TYK2(JH1domain-catalytic) (Entrez TYK2)
  Percent Control: 97%
Kinases (468) [8]; kinase TYK2(JH2domain-pseudokinase) (Entrez TYK2)
  Percent Control: 89%
Kinases (468) [9]
  Percent Control: 100%
Kinases (468) [10]
  Percent Control: 82%
Kinases (468) [11]
  Percent Control: 98%
Kinases (468) [12]
  Percent Control: 100%
Kinases (468) [13]
  Percent Control: 94%
Kinases (468) [14]
  Percent Control: 96%
Kinases (468) [15]
  Percent Control: 98%
Kinases (468) [16]
  Percent Control: 89%
Kinases (468) [17]
  Percent Control: 100%
Kinases (468) [18]
  Percent Control: 96%
Kinases (468) [19]
  Percent Control: 100%
Kinases (468) [20]; kinase RSK1(Kin.Dom.1-N-terminal) (Entrez RPS6KA1)
  Percent Control: 95%
Kinases (468) [20]; kinase RSK1(Kin.Dom.2-C-terminal) (Entrez RPS6KA1)
  Percent Control: 90%
Kinases (468) [21]
  Percent Control: 99%
Kinases (468) [22]
  Percent Control: 96%
Kinases (468) [23]
  Percent Control: 100%
Kinases (468) [24]
  Percent Control: 100%
Kinases (468) [25]
  Percent Control: 95%
Kinases (468) [26]
  Percent Control: 100%
Kinases (468) [27]
  Percent Control: 100%
Kinases (468) [28]
  Percent Control: 100%
Kinases (468) [29]
  Percent Control: 91%
Kinases (468) [30]
  Percent Control: 100%
Kinases (468) [31]
  Percent Control: 86%
Kinases (468) [32]
  Percent Control: 100%
Kinases (468) [33]
  Percent Control: 94%
Kinases (468) [34]
  Percent Control: 98% and 100% and 83%
Kinases (468) [34]; FLT3(ITD), 1000 nM
  Percent Control: 99%
Kinases (468) [34]; FLT3(ITD,D835V), 1000 nM
  Percent Control: 75%
